pEC50: −log10 of the molar value.
Assays:
[1] = system: HCV genotype 1a (H77 strain) replicon in HUH-7 cells; experiment: HCV replicon luciferase reporter assay, genotype 1a; type: cell-based; conditions: Hepatitis C virus, 72 h, HCV genotype 1a replicon, 3 days incubation, Renilla luciferase
Text: (§1) An HCV replicon whole cell system was established as described by Lohmann V, Korner F, Koch J, Herian U, Theilmann L, Bartenschlager R., Science 285(5424):110-3 (1999) and modified to introduce a luciferase reporter, as first described by Krieger et al (Krieger N, Lohmann V, and Bartenschlager R, J. Virol. 75(10):4614-4624 (2001)). CDNA encoding a humanized form of the Renilla luciferase gene and a linker sequence fused directly to the 3′-end of the luciferase gene were introduced into the replicon construct using an Asc1 restriction site located in core, directly upstream of the neomycin marker gene. The adaptive mutation at position 1179 (serine to isoleucine) was also introduced (Blight K J, Kolykhalov, A A, Rice, C M, Science 290(5498):1972-1974). A stable cell line constitutively expressing this HCV replicon construct was generated by first linearizing plasmid DNAs with ScaI. RNA transcripts were synthesized in vitro using the T7 MegaScript transcription kit (Ambion, Austin, Tex.) according to manufacturer's directions. In vitro transcripts of the cDNA were transfected into the human hepatoma cell line, HUH-7. […] Resulting cell lines were characterized for positive and negative strand RNA production and protein production over time.
A stable HCV replicon luciferase reporter cell line representing the genotype 1a H77 strain (Yanagi M, Purcell R H, Emerson S U, et al. Transcripts from a single full-length cDNA clone of hepatitis C virus are infectious when directly transfected into the liver of a chimpanzee. Proc Natl Acad Sci USA 1997; 94(16):8738-8743) was generated as described previously for the genotype 1b (Con1) replicon luciferase cell line. The replicon construct was modified by introducing mutations were introduced into the genes encoding the NS3 helicase domain (proline replaced by leucine at position 1496) and NS5A (serine to isoleucine at position 2204) to improve replication in cell culture.
(§2) HCV replicon luciferase assays were developed to monitor the inhibitory effects of compounds described in the disclosure on HCV genotypes 1a and 1b viral replication. HUH-7 cells, constitutively expressing the HCV replicon, were grown in Dulbecco's Modified Eagle Media (DMEM) (Gibco-BRL) containing 10% Fetal calf serum (FCS) (Sigma) and 1 mg/mL G418 (Gibco-BRL). Compounds were serially diluted 3 folds in DMSO for a twenty-point titration and subsequently transferred to sterile 384-well tissue-culture treated plates (Corning cat #3571). The plates were then seeded with 50 μL of cells at a density of 3.0×10^3 cells/well in DMEM containing 4% FCS (final DMSO concentration at 0.5%). After 3 days incubation at 37° C., cells were analyzed for Renilla Luciferase activity using the EnduRen as substrate (Promega cat #E6485). The EnduRen substrate was diluted in DMEM and then added to the plates to a final concentration of 7.5 μM. The plates were incubated for 2 hrs at 37° C. and then read immediately for 30 seconds with Viewlux Imager (PerkinElmer) using a luminescence program. To assess cytotoxicity of compounds, CC50 values were generated by multiplexing the EnduRen-containing plates with Cell Titer-Blue (Promega, cat #G8082). Cell-Titer Blue (3 μL) was added to each well and incubated for 8 hrs at 37° C. The fluorescence signal from each well was read, with an excitation wavelength at 525/10 nm and an emission wavelength of 598/10 nm, using the Viewlux Imager.
(§3) The EC50 values for compounds were calculated by using a four-parameter logistic equation: y=A+((B−A)/(1+((C/x)^D))), where A and B denotes minimal and maximal % inhibition, respectively, C is the EC50, D is the hill slope and x represents compound concentration.

[2] = system: HCV genotype 1b (Con1) replicon in HUH-7 cells; experiment: HCV replicon luciferase reporter assay, genotype 1b; type: cell-based; conditions: Hepatitis C virus, 72 h, HCV genotype 1b replicon, 3 days incubation, Renilla luciferase
Text: as §1, with “time. […]” for “time.”
as §2, §3

SMILES | pEC50 ([1]; numeric values) | pEC50 ([2]; numeric values) | pEC50 ([1]; range classes) | pEC50 ([2]; range classes)
COc1ccc2nc(O[C@@H]3C[C@H]4C(=O)N[C@]5(C(=O)NS(=O)(=O)C6CC6)C[C@H]5/C=C\[C@H](C)CCC[C@@H](C)[C@H](NC(=O)OC(C)(C)C)C(=O)N4C3)cnc2c1 [Compound 26, tert-butyl (2R,6S,7R,11R,13aS,14aR,16aS,Z)-14a-(cyclopropylsulfonylcarbamoyl)-2-(6-methoxyquinoxalin-2-yloxy)-7,11-dimethyl-5,16-dioxo-1,2,3,5,6,7,8,9,10,11,13a,14,14a,15,16,16a-hexadecahydrocyclopropa[e]pyrrolo[1,2-a][1,4]diazacyclopentadecin-6-ylcarbamate] | 6.67 | 7.06 |  | 
COc1ccc2c(O[C@@H]3C[C@H]4C(=O)N[C@]5(C(=O)NS(=O)(=O)C6(CF)CC6)C[C@H]5/C=C\[C@H](C)CCC[C@@H](C)[C@H](NC(=O)OC(C)(C)C)C(=O)N4C3)ncc(OC)c2c1 [Compound 11, tert-butyl (2R,6S,7R,11R,13aS,14aR,16aS,Z)-2-(4,6-dimethoxyisoquinolin-1-yloxy)-14a-(1-(fluoromethyl)cyclopropylsulfonylcarbamoyl)-7,11-dimethyl-5,16-dioxo-1,2,3,5,6,7,8,9,10,11,13a,14,14a,15,16,16a-hexadecahydrocyclopropa[e]pyrrolo[1,2-a][1,4]diazacyclopentadecin-6-ylcarbamate] |  |  | 8.30 to 8.70 | 9.00 to 9.70
COc1cnc(O[C@@H]2C[C@H]3C(=O)N[C@]4(C(=O)NS(=O)(=O)C5CC5)C[C@H]4/C=C\[C@@H](C)CCC[C@@H](C)[C@H](NC(=O)OC(C)(C)C(F)(F)F)C(=O)N3C2)c2ccccc12 [Compound 4, 1,1,1-trifluoro-2-methylpropan-2-yl (2R,6S,7R,11S,13aS,14aR,16aS,Z)-14a-(cyclopropylsulfonylcarbamoyl)-2-(4-methoxyisoquinolin-1-yloxy)-7,11-dimethyl-5,16-dioxo-1,2,3,5,6,7,8,9,10,11,13a,14,14a,15,16,16a-hexadecahydrocyclopropa[e]pyrrolo[1,2-a][1,4]diazacyclopentadecin-6-ylcarbamate] | 8.31 | 8.55 |  | 
COc1ccc2ncc(O[C@@H]3C[C@H]4C(=O)N[C@]5(C(=O)NS(=O)(=O)C6CC6)C[C@H]5/C=C\[C@@H](C)CCC[C@@H](C)[C@H](NC(=O)OC(C)(C)C(F)(F)F)C(=O)N4C3)nc2c1 [Compound 31, 1,1,1-trifluoro-2-methylpropan-2-yl (2R,6S,7R,11S,13aS,14aR,16aS,Z)-14a-(cyclopropylsulfonylcarbamoyl)-2-(7-methoxyquinoxalin-2-yloxy)-7,11-dimethyl-5,16-dioxo-1,2,3,5,6,7,8,9,10,11,13a,14,14a,15,16,16a-hexadecahydrocyclopropa[e]pyrrolo[1,2-a][1,4]diazacyclopentadecin-6-ylcarbamate] |  |  | 7.17 to 8.30 | 7.17 to 8.30
COc1cnc(O[C@@H]2C[C@H]3C(=O)N[C@]4(C(=O)NS(=O)(=O)C5(C)CC5)C[C@H]4/C=C\[C@H](C)CCC[C@@H](C)[C@H](NC(=O)OC(C)(C)C(F)(F)F)C(=O)N3C2)c2ccccc12 [Compound 35, 1,1,1-trifluoro-2-methylpropan-2-yl (2R,6S,7R,11R,13aS,14aR,16aS,Z)-2-(4-methoxyisoquinolin-1-yloxy)-7,11-dimethyl-14a-(1-methylcyclopropylsulfonylcarbamoyl)-5,16-dioxo-1,2,3,5,6,7,8,9,10,11,13a,14,14a,15,16,16a-hexadecahydrocyclopropa[e]pyrrolo[1,2-a][1,4]diazacyclopentadecin-6-ylcarbamate] | 8.71 | 9.29 |  | 

From patent US8691757B2 (Bristol-Myers Squibb Company, priority 2011, dated 2014)
